pIC50: −log10 of the molar value.
target: GST tagged IRAK4 (Homo sapiens (Human), UniProt Q9NWZ3); assay: IRAK4 Kinase Assay (IMAP fluorescence polarization); format: biochemical; details: 0.5 nM GST tagged IRAK4, 100 nM fluorescent peptide substrate RP7030, 100 μM ATP, 30 minutes at 25° C., IMAP FP readout
Description: The kinase activity of IRAK4 is determined by its ability to catalyze the phosphorylation of a fluorescent polypeptide substrate. The extent of phosphorylation is measured using the IMAP technology (Molecular Devices) where the phosphorylated fluorescent substrate binds to the large M(III)-based nanoparticles which reduces the rotational speed of the substrate and thus increases its fluorescent polarization (FP).
20 μL reaction mixture contains 10 mM TriHCl, pH 7.2, 0.5 nM GST tagged IRAK4 (SignalChem), 100 nM fluorescent peptide substrate (RP7030, Molecular Devices), 100 μM ATP, 1 mM DDT, 1 mM MgCl2, and 0.01% Tween 20. The reaction is initiated by the addition of ATP. After incubation for 30 minutes at 25° C., 60 μL of Progressive IMAP Reagent (Molecular Devices) is added to stop the reaction. Change in RP7030's FP is determined by a FP reader (Analyst HT, LJL BioSystems).

Sequence of GST tagged IRAK4 (Q9NWZ3 whole entry): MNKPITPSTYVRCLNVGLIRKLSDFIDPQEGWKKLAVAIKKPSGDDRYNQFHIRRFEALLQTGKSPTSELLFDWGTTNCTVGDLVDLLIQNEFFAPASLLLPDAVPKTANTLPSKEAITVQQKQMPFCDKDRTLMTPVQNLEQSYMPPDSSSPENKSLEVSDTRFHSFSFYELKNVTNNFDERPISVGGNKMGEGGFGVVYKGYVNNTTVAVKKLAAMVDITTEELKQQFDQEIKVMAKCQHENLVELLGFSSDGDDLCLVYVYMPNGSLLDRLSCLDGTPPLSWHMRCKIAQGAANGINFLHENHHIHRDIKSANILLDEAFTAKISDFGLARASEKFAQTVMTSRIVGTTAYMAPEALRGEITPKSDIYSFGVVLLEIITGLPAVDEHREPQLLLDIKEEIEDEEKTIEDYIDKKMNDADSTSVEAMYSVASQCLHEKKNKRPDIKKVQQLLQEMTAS

| pIC50 | Compound |
| --- | --- |
| 8.15 | C=Cc1ccc2ncnc(NC3CCC(N(C)C)CC3)c2c1 (stereo not shown) [Example 3-2, N′-(6-ethenylquinazolin-4-yl)-N,N-dimethylcyclohexane-1,4-diamine] |
| 7.27 | COC/C=C/c1ccc2ncnc(N[C@H]3CC[C@H](N(C)C)CC3)c2c1 [Example 3-3, trans-N′-{6-[(1E)-3-methoxyprop-1-en-1-yl]quinazolin-4-yl}-N,N-dimethylcyclohexane-1,4-diamine] |
| 8.10 | CCc1ccc2ncnc(N[C@H]3CC[C@H](N4CCOCC4)CC3)c2c1 [Example 3-4, 6-ethyl-N-(trans-4-morpholin-4-ylcyclohexyl)quinazolin-4-amine] |
| 6.85 | N#CCCCc1ccc2ncnc(N[C@H]3CC[C@H](N4CCOCC4)CC3)c2c1 [Example 3-5, 4-(4-(((trans)-4-morpholinocyclohexyl)amino)quinazolin-6-yl)butanenitrile] |
| 7.74 | CCc1ccc2ncnc(N[C@H]3CC[C@H](N(C)C)CC3)c2c1 [Example 4-1, (trans)-N1-(6-ethylquinazolin-4-yl)-N4,N4-dimethylcyclohexane-1,4-diamine] |
| 7.80 | CC(C)c1ccc2ncnc(NC3CCC(N(C)C)CC3)c2c1 (stereo not shown) [Example 4-2, N,N-dimethyl-N′-[6-(1-methylethyl)quinazolin-4-yl]cyclohexane-1,4-diamine] |
| 7.47 | CCCCc1ccc2ncnc(N[C@H]3CC[C@H](N4CCOCC4)CC3)c2c1 [Example 4-3, 6-butyl-N-(trans-4-morpholin-4-ylcyclohexyl)quinazolin-4-amine] |
| 7.96 | CCCc1ccc2ncnc(N[C@H]3CC[C@H](N4CCOCC4)CC3)c2c1 [Example 4-4, N-(trans-4-morpholin-4-ylcyclohexyl)-6-propylquinazolin-4-amine] |
| 7.77 | CN(C)[C@H]1CC[C@H](Nc2ncnc3ccc(CCO)cc23)CC1 [Example 5-1, 2-(4-(((trans)-4-(dimethylamino)cyclohexyl)amino)quinazolin-6-yl)ethan-1-ol] |
| 8.00 | OCCCc1ccc2ncnc(N[C@H]3CC[C@H](N4CCOCC4)CC3)c2c1 [Example 5-2, 3-{4-[(trans-4-morpholin-4-ylcyclohexyl)amino]quinazolin-6-yl}propan-1-ol] |
| 7.17 | OCCCCc1ccc2ncnc(N[C@H]3CC[C@H](N4CCOCC4)CC3)c2c1 [Example 5-3, 4-{4-[(trans-4-morpholin-4-ylcyclohexyl)amino]quinazolin-6-yl}butan-1-ol] |
| 7.54 | CC(O)c1ccc2ncnc(N[C@H]3CC[C@H](N(C)C)CC3)c2c1 (stereo partly drawn) [Example 5-4, 1-(4-{[trans-4-(dimethylamino)cyclohexyl]amino}quinazolin-6-yl)ethanol] |
| 6.21 | Cc1ccc2ncnc(N[C@H]3CC[C@H](N4CCS(=O)(=O)CC4)CC3)c2c1 [Example 6-1, 4-((trans)-4-((6-methylquinazolin-4-yl)amino)cyclohexyl)thiomorpholine-1,1-dioxide] |
| 7.00 | Cc1ccc2ncnc(N[C@H]3CC[C@H](N4CC5(COC5)C4)CC3)c2c1 [Example 6-2, N-((trans)-4-(2-oxa-6-azaspiro[3.3]heptan-6-yl)cyclohexyl)-6-methylquinazolin-4-amine] |
| 7.21 | CC(O)CCc1ccc2ncnc(N[C@H]3CC[C@H](N4CCOCC4)CC3)c2c1 (stereo partly drawn) [Example 7-1, 4-(4-(((trans)-4-Morpholinocyclohexyl)amino)quinazolin-6-yl)butan-2-ol] |
| 7.54 | CN(C)[C@H]1CC[C@H](Nc2ncnc3ccc(CO)cc23)CC1 [Example 8-1, (4-(((trans)-4-(dimethylamino)cyclohexyl)amino)quinazolin-6-yl)methanol] |

Source: patent publication US9926330B2, “Inhibitors of IRAK4 activity” (MERCK SHARP & DOHME CORP., priority 2014, dated 2018)
